Literature values as cited in US7700588B2, “Pharmaceutical compositions comprising midazolam in a high concentration” (priority 2004, dated 2010).
Where two headings read alike, the source gives them in different places.

How the values were obtained:
[1] = not given; remark: listed apart in the source
[2] = for mean absolute bioavailability: injection solutions
[3] = free base, pH 7.5
[4] = nasal 0.2 mg/kg
[5] = system: intestinal drug efflux transporter; details: orally delivered
[6] = commercial intravenous solutions 5 mg/ml, pH 3.3 to 3.5
[7] = after nasal administration, 0.2 to 0.25 mg/kg

Cc1ncc2n1-c1ccc(Cl)cc1C(c1ccccc1F)=NC2 [midazolam]
onset of action (intranasal, children and adults): about 10 minutes | clinical effect in children undergoing diagnostic and minor surgical procedures (nasal 0.2 mg/kg): sedative and anxiolytic effects | effect on seizures and EEG in epileptic children (nasal 0.2 mg/kg): suppresses acute seizures and improves the EEG background | share in the ring-closed form [1, 6]: 80-85% | share in the ring-open form [1, 6]: 15-20% | state of the ring when pH is increased ([1]; pH increased to 7.4): completely closed | time for which therapeutically effective plasma concentrations are maintained [2, 7]: about 1 hour | time until therapeutically effective plasma concentrations are manifest [2, 7]: 3 min | time to maximum plasma concentrations ([2]; intranasal): 5 to 15 min | mean absolute bioavailability ([2]; intranasal, adult surgical patients): 83% | mean absolute bioavailability ([2]; intranasal, children): 50% | mean absolute bioavailability ([2]; intranasal, healthy volunteers): 55% | partition coefficient between octanol and phosphate buffer [3]: about 475 | side effects in children [4]: none of the children had clinical signs of respiratory depression, bradycardia or other side effects | transporter substrate [5]: substrate for the intestinal drug efflux transporter
